Measured values published in the supplement of paper PMC10307832.

Columns and labels:
Assay in all cases: relative viability (nuclei count vs DMSO), 5 days (fraction); higher = more cells survive
[1] = compound: CCOC(=O)CCNc1cc(N2CCc3ccccc3CC2)nc(-c2ccccn2)n1 [GSK-J4] + Cc1nc(NC(=O)N2CCC[C@H]2C(N)=O)sc1-c1ccnc(C(C)(C)C(F)(F)F)c1 [Alpelisib] (partner 2 µM)
Method in brief: (§1)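 Lung cancer cell lines were pin-tool dosed in 1536-well plates on the day after seeding, with either a lone drug or a fixed anchor-drug dose plus five library-drug doses (not always all listed) in √10 steps. Nuclei were counted on 4× images after 5 days. Relative viability is the ratio of treated-well to vehicle-well nuclei counts, with each value a median of duplicate plates.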

[2] = compound: CN1CCC(CC1)OC2=CC(=C(C=C2)NC3=NC=C4C(=N3)N(C(=O)N4C)C5CCCC5)OC [AZ3146] + CC1(C)CCC(c2ccc(Cl)cc2)=C(CN2CCN(c3ccc(C(=O)NS(=O)(=O)c4ccc(N[C@H](CCN5CCOCC5)CSc5ccccc5)c(S(=O)(=O)C(F)(F)F)c4)cc3)CC2)C1 [Navitoclax] (partner 0.5 µM)
Method in brief: as §1

[3] = compound: CN1CCC(CC1)OC2=CC(=C(C=C2)NC3=NC=C4C(=N3)N(C(=O)N4C)C5CCCC5)OC [AZ3146] + CC(=O)c1c(C)c2cnc(Nc3ccc(N4CCNCC4)cn3)nc2n(C2CCCC2)c1=O [Palbociclib] (partner 0.5 µM)
Method in brief: as §1

[4] = compound: CN1CCC(CC1)OC2=CC(=C(C=C2)NC3=NC=C4C(=N3)N(C(=O)N4C)C5CCCC5)OC [AZ3146] + C[C@]1(O)C[C@@H](c2nc(-c3ccc4ccc(-c5ccccc5)nc4c3)c3c(N)nccn32)C1 [Linsitinib] (partner 1 µM)
Method in brief: as §1

UMC-11 showed a relative viability ([1]; first compound 0.5 µM) of 0.932, a relative viability ([1]; first compound 1.581 µM) of 0.856 and a relative viability ([1]; first compound 5 µM) of 1.06. The relative viability ([1]; first compound 15.81 µM) was 0.938, the relative viability ([1]; first compound 50 µM) was 0.607 and the relative viability ([2]; first compound 0.08 µM) was 0.32. For the same cell line, the relative viability ([2]; first compound 0.253 µM) was 0.27, the relative viability ([2]; first compound 0.8 µM) was 0.302 and the relative viability ([2]; first compound 2.53 µM) was 0.312. It also gave a relative viability ([2]; first compound 8 µM) of 0.252, a relative viability ([3]; first compound 0.08 µM) of 0.267 and a relative viability ([3]; first compound 0.253 µM) of 0.342. For the same cell line, the relative viability ([3]; first compound 0.8 µM) was 0.335, the relative viability ([3]; first compound 2.53 µM) was 0.303 and the relative viability ([3]; first compound 8 µM) was 0.306. For the same cell line, the relative viability ([4]; first compound 0.08 µM) was 0.989, the relative viability ([4]; first compound 0.253 µM) was 1.05 and the relative viability ([4]; first compound 0.8 µM) was 0.992. The relative viability ([4]; first compound 2.53 µM) was 0.922 and the relative viability ([4]; first compound 8 µM) was 0.577.
